In patent US7070940B2, “Method for determining the ability of a compound to modify the interaction between parkin and the p38 protein” (Aventis Pharma S.A., priority 2002, dated 2006):

Columns and labels:
interaction Parkin-p38 = experiment: Reverse two-hybrid screening assay in yeast (growth on 5-fluoroorotic acid); assay type: cell-based, Saccharomyces cerevisiae; settings: internal control; agar medium with 0.35 g/l 5FOA, 30° C., 48 h and/or 72 h
Text: The Saccharomyces cerevisiae strain used for the screening can be the L40 strain used to clone the p38 protein. However, this strain must contain the URA3 reporter gene in place of the HIS3 reporter gene under the control of a promoter containing a sequence to which the LexA protein attaches to induce transcription. This strain may also contain a disruption in the erg6 gene and/or genes such as pdr5 or pdr11, to increase cell permeability to the compounds tested during the screening (WO96/10082).
This strain is simultaneously transformed with the two plasmids encoding the p38 protein or parkin used in the previous two-hybrid test or else encoding homologous or truncated forms of these two proteins. The interaction between these proteins confers a Ura+phenotype on the doubly-transformed strain, by reconstituting a transcription factor capable of inducing transcription of the URA3 reporter gene. This Ura+ phenotype also makes it possible to use the sensitivity of the strain to 5-fluoorotic acid (5FOA) for reverse two-hybrid “positive” screening. […]
48 h and/or 72 h and they may be read by visual examination. […] The compounds which have made it possible to obtain such a response of strain growth restoration are identified as being positive and recorded in a database.

[1] = test system: COS7 cells overexpressing p38; experiment: p38 perinuclear inclusions (aggresomes) by immunocytochemistry in COS7 cells; assay type: cell-based; settings: 15 μg/ml overnight
Protocol: The cells (COS7, 2.5′ 104 and SH-SY5Y cells, 8′ 104) were transfected with the plasmids indicated (pcDNA3-myc-p38, 0.5 ·g; or pcDNA3-myc-p38 and pcDNA3-HA-Parkin, 0.25 ·g of each), and treated or not treated with: epoxomicin (Affiniti, 1 μM), nocodazole (Sigma, 15 μg/ml), cytochalasin D (Sigma, 200 nM) overnight. Forty-eight hours after transfection, the cells were fixed and subjected to standard immunocytochemistry procedures. The polyclonal primary antibodies used were: anti-p38 (M. Mirande, 1:20 000), anti-Parkin (Asp5, 1:400), anti-proteasome 20S (Affiniti, 1:2500), anti-Hsp70 (Stressgen, 1:2500), anti-ubiquitin (Dako, 1:100) and anti-actin (Sigma, 1:100). The monoclonal primary antibodies were: anti ·a-tubulin (clone DM 1A, Sigma, 1:1000), antivimentin (DAKO, clone V9, 1:100) and anti-myc (clone 9E10, Santa Cruz, 1:400). The secondary antibodies were: anti-mouse IgGs conjugated to the fluorochrome Alexa Fluor 488 (Interchim, 1:200) and anti-rabbit IgGs conjugated to the fluorochrome CY3 (Jackson ImmunoResearch, 1:500). The cells were analysed by confocal microscopy.
We analysed the nature and the composition of the p38 protein perinuclear inclusions formed when p38 is overexpressed in cells of the COS7 line. In particular, we wondered whether these inclusions could be of the aggresome type (Kopito et al., 2000). […]

| Compound | yeast strain growth in the presence of 5FOA (interaction Parkin-p38) | effect on p38 perinuclear aggregates [1] |
| --- | --- | --- |
| O=c1cnn([C@@H]2O[C@H](CO)[C@@H](O)[C@H]2O)c(=O)[nH]1 [6-azauridine] | restores strain growth |  |
| COC(=O)Nc1nc2ccc(C(=O)c3cccs3)cc2[nH]1 [nocodazole] |  | dispersion of the perinuclear aggregates |
